Measured values published in DBAASP.
≈ marks a conversion by molar mass, not a printed value.

Experiments:
Experiment in all cases: ≥ marks a high value that may be exact or a test limit, other limits are often not marked, values filed in µg/mL are converted to µM
[1] = system: Bacillus subtilis ATCC 23857
[2] = system: Escherichia coli ATCC 25922
[3] = system: Pseudomonas aeruginosa Ps4
[4] = system: Staphylococcus aureus ATCC 25923
[5] = system: Escherichia coli ATCC 25726
[6] = system: Salmonella enterica subsp. enterica serovar Pullorum C79-13
[7] = system: Salmonella enterica subsp. enterica serovar Typhimurium C77-31
[8] = system: Enterococcus faecalis ATCC 29212
[9] = system: Staphylococcus aureus ATCC 29213
[10] = system: Staphylococcus epidermidis ATCC 12228
[11] = system: Pseudomonas aeruginosa ATCC 27853
[12] = system: Bacillus subtilis CMCC 63501
[13] = system: Klebsiella pneumoniae ATCC 700603
[14] = system: Acinetobacter baumannii ATCC 19606
[15] = system: Staphylococcus aureus ATCC 43300
[16] = system: Escherichia coli UB1005

CC[C@H](C)[C@H](NC(=O)CNC(=O)[C@H](C)NC(=O)[C@@H](NC(=O)[C@H](C)NC(=O)CN)[C@@H](C)CC)C(=O)N[C@H](C(=O)N[C@H](C(=O)N[C@@H](CCCCN)C(=O)N[C@H](C(=O)N[C@@H](CCCCN)C(=O)N[C@@H](CCCCN)C(N)=O)[C@@H](C)CC)[C@@H](C)CC)[C@@H](C)CC [GAIAGIIIKIKK]
MIC [1]: ≥ 32 µM
MIC [2]: 64 µM (≈ 78.3 µg/mL)

CC[C@H](C)[C@H](NC(=O)[C@H](CC(N)=O)NC(=O)[C@H](CCCN=C(N)N)NC(=O)[C@H](CCC(N)=O)NC(=O)[C@H](Cc1ccc(O)cc1)NC(=O)[C@@H](N)Cc1ccccc1)C(=O)N[C@@H](CCCN=C(N)N)C(=O)N[C@@H](CCCCN)C(=O)N[C@H](C(=O)N[C@@H](CCCN=C(N)N)C(N)=O)C(C)C [FYQRNIRKVR]
MIC [3]: ≥ 181 µM

CC[C@H](C)[C@H](NC(=O)[C@H](CCCN=C(N)N)NC(=O)[C@H](CCC(N)=O)NC(=O)[C@H](Cc1c[nH]c2ccccc12)NC(=O)[C@@H](N)Cc1ccccc1)C(=O)N[C@@H](CCCN=C(N)N)C(=O)N[C@@H](CCCCN)C(=O)N[C@H](C(=O)N[C@@H](CCCN=C(N)N)C(N)=O)C(C)C [FWQRIRKVR]
MIC [3]: ≥ 194 µM

CC[C@H](C)[C@H](NC(=O)[C@H](CC(N)=O)NC(=O)[C@H](CCCN=C(N)N)NC(=O)[C@H](CCC(N)=O)NC(=O)[C@H](Cc1c[nH]c2ccccc12)NC(=O)[C@@H](N)Cc1ccccc1)C(=O)N[C@@H](CCCN=C(N)N)C(=O)N[C@@H](CCCCN)C(=O)N[C@@H](Cc1ccc(O)cc1)C(=O)N[C@@H](CCCN=C(N)N)C(N)=O [FWQRNIRKYR]
MIC [3]: ≥ 170 µM

CC[C@H](C)[C@H](NC(=O)[C@H](CCCCN)NC(=O)[C@H](C)NC(=O)[C@H](C)NC(=O)[C@H](CC(C)C)NC(=O)CNC(=O)[C@H](C)NC(=O)[C@H](CC(C)C)NC(=O)[C@@H](NC(=O)[C@@H]1CCCN1C(=O)[C@H](CC(C)C)NC(=O)[C@@H](N)Cc1ccccc1)[C@@H](C)CC)C(=O)N[C@H](C(=O)N1CCC[C@H]1C(=O)N[C@@H](CCCCN)C(=O)N[C@@H](CC(C)C)C(=O)N[C@@H](Cc1ccccc1)C(=O)N[C@H]1CSSC[C@@H](C(=O)O)NC(=O)[C@H](CCCCN)NC(=O)[C@H](CCCCN)NC(=O)[C@H]([C@@H](C)O)NC(=O)[C@H](C)NC(=O)[C@H](CC(C)C)NC1=O)C(C)C [FLPILAGLAAKIVPKLFCLATKKC]
MIC [4]: 2 µM (≈ 5.11 µg/mL)
MIC [5]: ≥ 32 µM

NC(=O)[C@@H]1CCCN1C(=O)[C@H](CCCN=C(N)N)NC(=O)[C@@H]1CCCN1C(=O)[C@H](CCCN=C(N)N)NC(=O)[C@H](CS)NC(=O)[C@H](Cc1ccccc1)NC(=O)[C@H](CCCN=C(N)N)NC(=O)[C@H](CCCN=C(N)N)NC(=O)[C@H](CCCN=C(N)N)NC(=O)[C@H](CS)NC(=O)[C@H](CCCN=C(N)N)NC(=O)[C@@H]1CCCN1C(=O)[C@H](CCCN=C(N)N)NC(=O)[C@@H]1CCCN1 [PRPRCRRRFCRPRP]
MIC [6]: ≥ 128 µM
MIC [2]: 16 µM (≈ 29.6 µg/mL)
MIC [7]: ≥ 128 µM
MIC [8]: > 128 µM
MIC [9]: > 128 µM
MIC [10]: > 128 µM
MIC [11]: > 128 µM
MIC [12]: 8 µM (≈ 14.8 µg/mL)

CC[C@H](C)[C@H](NC(=O)[C@H](CCCN=C(N)N)NC(=O)[C@H](Cc1c[nH]c2ccccc12)NC(=O)[C@H](CCCN=C(N)N)NC(=O)[C@H](Cc1c[nH]c2ccccc12)NC(=O)[C@@H](N)Cc1ccccc1)C(=O)N[C@@H](Cc1c[nH]c2ccccc12)C(=O)N[C@@H](CCCN=C(N)N)C(N)=O [FWRWRIWR]
MIC [3]: 23.9 µM (≈ 31.2 µg/mL)

NC(=O)[C@H](Cc1c[nH]c2ccccc12)NC(=O)[C@H](Cc1c[nH]c2ccccc12)NC(=O)[C@H](CCCN=C(N)N)NC(=O)[C@H](CCCN=C(N)N)NC(=O)[C@H](Cc1c[nH]c2ccccc12)NC(=O)[C@H](CCCN=C(N)N)NC(=O)[C@H](CCCN=C(N)N)NC(=O)[C@H](Cc1c[nH]c2ccccc12)NC(=O)[C@H](Cc1c[nH]c2ccccc12)NC(=O)[C@@H](N)CCCN=C(N)N [RWWRRWRRWW]
MIC [1]: 4 µM (≈ 6.92 µg/mL)
MIC [2]: 32 µM (≈ 55.3 µg/mL)
MIC [8]: 32 µM (≈ 55.3 µg/mL)
MIC [4]: 8 µM (≈ 13.8 µg/mL)
MIC [13]: 32 µM (≈ 55.3 µg/mL)
MIC [14]: 32 µM (≈ 55.3 µg/mL)
MIC [10]: 32 µM (≈ 55.3 µg/mL)
MIC [11]: 8 µM (≈ 13.8 µg/mL)

CC[C@H](C)[C@H](NC(=O)[C@H](CC(N)=O)NC(=O)[C@H](CO)NC(=O)[C@H](CCC(N)=O)NC(=O)[C@H](Cc1c[nH]c2ccccc12)NC(=O)[C@@H](N)Cc1ccccc1)C(=O)N[C@@H](CCCN=C(N)N)C(=O)N[C@@H](CCCCN)C(=O)N[C@H](C(=O)N[C@@H](CCCN=C(N)N)C(N)=O)C(C)C [FWQSNIRKVR]
MIC [3]: ≥ 187 µM

CC[C@H](C)[C@H](NC(=O)[C@H](CCCN=C(N)N)NC(=O)CNC(=O)[C@@H](NC(=O)[C@@H](NC(=O)[C@H](CCCN=C(N)N)NC(=O)[C@H](CCCCN)NC(=O)[C@H](Cc1ccccc1)NC(=O)[C@H](CCC(=O)O)NC(=O)[C@H](CCCCN)NC(=O)CN)[C@@H](C)CC)C(C)C)C(=O)N[C@@H](Cc1ccc(O)cc1)C(=O)N[C@@H](CCCN=C(N)N)C(=O)N[C@@H](CC(C)C)C(=O)N[C@@H](CS)C(=O)N[C@@H](CS)C(=O)N[C@@H](CCCN=C(N)N)C(N)=O [GKEFKRIVGRIYRLCCR]
MIC [15]: 8 µM (≈ 16.8 µg/mL)
MIC [6]: 8 µM (≈ 16.8 µg/mL)
MIC [2]: 4 µM (≈ 8.39 µg/mL)
MIC [7]: 8 µM (≈ 16.8 µg/mL)
MIC [8]: 16 µM (≈ 33.5 µg/mL)
MIC [9]: 16 µM (≈ 33.5 µg/mL)
MIC [16]: 4 µM (≈ 8.39 µg/mL)
MIC [10]: 16 µM (≈ 33.5 µg/mL)
MIC [11]: 16 µM (≈ 33.5 µg/mL)
MIC [12]: 8 µM (≈ 16.8 µg/mL)

CC[C@H](C)[C@H](NC(=O)[C@H](CC(N)=O)NC(=O)[C@H](CCCN=C(N)N)NC(=O)[C@H](CCC(N)=O)NC(=O)[C@H](Cc1c[nH]c2ccccc12)NC(=O)[C@@H](N)Cc1ccccc1)C(=O)N[C@@H](CCCN=C(N)N)C(=O)N[C@@H](CO)C(=O)N[C@H](C(=O)N[C@@H](CCCN=C(N)N)C(N)=O)C(C)C [FWQRNIRSVR]
MIC [3]: ≥ 184 µM

CC[C@H](C)[C@H](NC(=O)[C@H](Cc1c[nH]c2ccccc12)NC(=O)[C@H](CC(N)=O)NC(=O)[C@H](CCCN=C(N)N)NC(=O)[C@H](CCC(N)=O)NC(=O)[C@H](Cc1c[nH]c2ccccc12)NC(=O)[C@@H](N)Cc1ccccc1)C(=O)N[C@@H](CCCN=C(N)N)C(=O)N[C@@H](CCCN=C(N)N)C(N)=O [FWQRNWIRR]
MIC [3]: ≥ 184 µM

CC[C@H](C)[C@H](N)C(=O)N[C@@H](CCCN=C(N)N)C(=O)N[C@H](C(=O)N[C@@H](CCCN=C(N)N)C(=O)N[C@@H](CS)C(=O)N[C@@H](CCCN=C(N)N)C(=O)N[C@@H](CCCN=C(N)N)C(=O)N[C@@H](CCCN=C(N)N)C(=O)N[C@@H](Cc1ccccc1)C(=O)N[C@@H](CS)C(=O)N[C@@H](CCCN=C(N)N)C(=O)N[C@H](C(=O)N[C@@H](CCCN=C(N)N)C(=O)N[C@H](C(N)=O)[C@@H](C)CC)[C@@H](C)CC)[C@@H](C)CC [IRIRCRRRFCRIRI]
MIC [6]: 1 µM (≈ 1.92 µg/mL)
MIC [1]: 4 µM (≈ 7.67 µg/mL)
MIC [7]: 4 µM (≈ 7.67 µg/mL)
MIC [4]: 8 µM (≈ 15.3 µg/mL)
MIC [9]: 4 µM (≈ 7.67 µg/mL)
MIC [13]: 8 µM (≈ 15.3 µg/mL)
MIC [10]: 4 µM (≈ 7.67 µg/mL)
MIC [11]: 4 µM (≈ 7.67 µg/mL)
MIC [12]: 2 µM (≈ 3.83 µg/mL)

CC[C@H](C)[C@H](NC(=O)[C@H](CCCN=C(N)N)NC(=O)[C@@H](NC(=O)[C@H](CC(N)=O)NC(=O)[C@H](CCCN=C(N)N)NC(=O)[C@H](CCC(N)=O)NC(=O)[C@H](Cc1c[nH]c2ccccc12)NC(=O)[C@H](Cc1ccccc1)NC(=O)[C@@H](N)Cc1ccccc1)[C@@H](C)CC)C(=O)N[C@@H](CCCN=C(N)N)C(=O)N[C@@H](CCCN=C(N)N)C(N)=O [FFWQRNIRIRR]
MIC [3]: ≥ 157 µM

CC[C@H](C)[C@H](NC(=O)[C@H](CCCCN)NC(=O)[C@H](CO)NC(=O)[C@H](C)NC(=O)[C@H](Cc1c[nH]c2ccccc12)NC(=O)CN)C(=O)NCC(=O)N[C@@H](CCC(N)=O)C(=O)N[C@H](C(=O)N[C@@H](CC(C)C)C(=O)NCC(=O)N[C@@H](CCCCN)C(=O)N[C@@H](CCSC)C(=O)N[C@@H](C)C(=O)N[C@@H](CCCCN)C(=O)N[C@H](C(=O)NCC(=O)N[C@@H](CC(C)C)C(=O)N[C@@H](CCC(N)=O)C(=O)N[C@@H](CCC(=O)O)C(=O)N[C@H](C(=O)N[C@H](C(=O)N[C@@H](CCC(N)=O)C(=O)N1CCC[C@H]1C(=O)N[C@@H](CCCCN)C(=O)O)[C@@H](C)CC)[C@@H](C)CC)C(C)C)[C@@H](C)O [GWASKIGQTLGKMAKVGLQEIIQPK]
MIC [4]: > 50 µM
MIC [5]: ≥ 50 µM
